In PubChem BioAssay AID306 (DTP/NCI, 2004) one finds T/C data, which are given here for 16 compounds.

This assay concerns BDF1 mice, L1210 Methyl-GAG-resistant leukemia, survival T/C. The experiment in a line: NCI In Vivo Anticancer Drug Screen. Data for tumor model L1210 Leukemia resistant to Methyl-GAG; NSC 32946 (subcutaneous) in B6D2F1 (BDF1) mice. Conditions: endpoint: mean survival time, higher = longer survival. How it is done:
The antitumor activity of compounds was measured in mice bearing transplantable tumors. Survival or tumor size were measured and the results are expressed as the measurement made in the treated group (T) divided by the measurement made in the vehicle treated control group (C). The tumor model used in this assay is L1210 Leukemia resistant to Methyl-GAG; NSC 32946 (subcutaneous) in B6D2F1 (BDF1) mice

Setting [1] is: dose: 25.0 mg/kg/injection, schedule: Q01DX Z (ip), vehicle: carboxymethylcellulose (CMC).
Setting [2] is: dose: 50.0 mg/kg/injection, schedule: Q01DX Z (ip), vehicle: carboxymethylcellulose (CMC).
Where [3] appears, read: dose: 100.0 mg/kg/injection, schedule: Q01DX Z (ip), vehicle: carboxymethylcellulose (CMC).
The mark [4] stands for this setting: dose: 200.0 mg/kg/injection, schedule: Q01DX Z (ip), vehicle: carboxymethylcellulose (CMC).
Setting [5] is: dose: 400.0 mg/kg/injection, schedule: Q01DX Z (ip), vehicle: carboxymethylcellulose (CMC).
The mark [6] stands for this setting: dose: 6.25 mg/kg/injection, schedule: Q01DX Z (ip), vehicle: carboxymethylcellulose (CMC).
The mark [7] stands for this setting: dose: 12.5 mg/kg/injection, schedule: Q01DX Z (ip), vehicle: carboxymethylcellulose (CMC).

Molecules are shown by their SMILES. Where “and” joins values, the source holds several entries; their conditions need not be identical. Equal values may be shown once. Toxic doses and inconclusive results are not listed.

`O=C(Nc1ccc(C2=NCCN2)cc1)c1ccc(C(=O)Nc2ccc(C3=NCCN3)cc2)cc1`: the T/C by setting is: under setting [1], 98 % of control; under setting [2], 98 % of control; under setting [3], 124 % of control; under setting [4], 236 % of control; under setting [5], 104 % of control.

As to `CSc1ncnc2c1ncn2C1OC(CO)C(O)C1O` (stereo not drawn), the T/C is 102 % of control under setting [6], 107 % of control under setting [7] and 97 % of control under setting [2].

Take `O=C1C(NC(=O)C2CCCCC2)=C(N2CC2)C(=O)C(NC(=O)C2CCCCC2)=C1N1CC1`: the T/C by setting is: under setting [1], 100 % of control; under setting [2], 96 % of control; under setting [3], 114 % of control; under setting [4], 108 % of control and 118 % of control; under setting [5], 120 % of control; (dose: 800.0 mg/kg/injection, schedule: Q01DX Z (ip), vehicle: carboxymethylcellulose (CMC)) 104 % of control.

Turning to `C[C@@H]1C[C@@H]([C@H](O)CC2CC(=O)NC(=O)C2)C(=O)[C@@H](C)C1`, the T/C by setting is: (dose: 9.4 mg/kg/injection, schedule: Q01DX Z (ip), vehicle: water) 90 % of control; (dose: 12.5 mg/kg/injection, schedule: Q01DX Z (ip), vehicle: water) 114 % of control and 122 % of control (2×); (dose: 18.8 mg/kg/injection, schedule: Q01DX Z (ip), vehicle: water) 93 % of control; (dose: 25.0 mg/kg/injection, schedule: Q01DX Z (ip), vehicle: water) 156 % of control; (dose: 37.5 mg/kg/injection, schedule: Q01DX Z (ip), vehicle: water) 124 % of control; (dose: 50.0 mg/kg/injection, schedule: Q01DX Z (ip), vehicle: water) 108 % of control.

On to `O=c1[nH]c(=O)n(C2CC(O)C(CO)O2)cc1F` (stereo not drawn), for which the T/C by setting is: under setting [1], 112 % of control; under setting [3], 121 % of control; under setting [4], 87 % of control and 103 % of control.

Regarding `CCn1cnc2c(=S)nc[nH]c21`, the T/C runs as follows: (dose: 8.0 mg/kg/injection, schedule: Q01DX Z (ip), vehicle: carboxymethylcellulose (CMC)) 113 % of control; (dose: 16.0 mg/kg/injection, schedule: Q01DX Z (ip), vehicle: carboxymethylcellulose (CMC)) 106 % of control; (dose: 31.0 mg/kg/injection, schedule: Q01DX Z (ip), vehicle: carboxymethylcellulose (CMC)) 120 % of control.

Turning to `C[C@]12C=CC(=O)C=C1CC[C@@H]1[C@@H]2[C@@H](O)C[C@@]2(C)[C@H]1CC[C@]2(O)C(=O)CO`, the T/C was 104 % of control (dose: 62.5 mg/kg/injection, schedule: Q01DX Z (sc), vehicle: steriod suspending solution); 104 % of control and 124 % of control (dose: 125.0 mg/kg/injection, schedule: Q01DX Z (sc), vehicle: steriod suspending solution); 94 % of control (dose: 250.0 mg/kg/injection, schedule: Q01DX Z (sc), vehicle: steriod suspending solution).

Regarding `N=C(N)c1ccc(Nc2ccc(C(=N)N)cc2)cc1`, the T/C is 98 % of control and 102 % of control (dose: 3.1 mg/kg/injection, schedule: Q01DX Z (ip), vehicle: methylcellulose (MC)); 107 % of control (dose: 6.25 mg/kg/injection, schedule: Q01DX Z (ip), vehicle: methylcellulose (MC)); 93 % of control (dose: 6.3 mg/kg/injection, schedule: Q01DX Z (ip), vehicle: methylcellulose (MC)); 97 % of control (dose: 12.5 mg/kg/injection, schedule: Q01DX Z (ip), vehicle: methylcellulose (MC)).

Take `Nc1ncnc2c1ccn2C1OC(CO)C(O)C1O` (stereo not drawn): the T/C by setting is: (dose: 0.31 mg/kg/injection, schedule: Q01DX Z (ip), vehicle: carboxymethylcellulose (CMC)) 89 % of control and 97 % of control; (dose: 0.63 mg/kg/injection, schedule: Q01DX Z (ip), vehicle: carboxymethylcellulose (CMC)) 91 % of control and 102 % of control; (dose: 1.25 mg/kg/injection, schedule: Q01DX Z (ip), vehicle: carboxymethylcellulose (CMC)) 97 % of control and 112 % of control; (dose: 2.5 mg/kg/injection, schedule: Q01DX Z (ip), vehicle: carboxymethylcellulose (CMC)) 94 % of control.

With `Oc1cc(CN(CCCl)CCCl)c(O)cc1CN(CCCl)CCCl`, the T/C (dose: 1.88 mg/kg/injection, schedule: Q01DX Z (sc), vehicle: steriod suspending solution) was 103 % of control; the T/C (dose: 3.75 mg/kg/injection, schedule: Q01DX Z (sc), vehicle: steriod suspending solution) is 111 % of control; the T/C (dose: 7.5 mg/kg/injection, schedule: Q01DX Z (sc), vehicle: steriod suspending solution) was 115 % of control.

Regarding `Nc1nc2n[nH]nc2c(=O)[nH]1`, the T/C by setting is: (dose: 25.0 mg/kg/injection, schedule: Q01DX Z (ip), vehicle: other) 159 % of control; (dose: 100.0 mg/kg/injection, schedule: Q01DX Z (ip), vehicle: other) 162 % of control and 168 % of control; (dose: 400.0 mg/kg/injection, schedule: Q01DX Z (ip), vehicle: other) 177 % of control.

As to `N#Cc1cn(C2OC(CO)C(O)C2O)c2ncnc(N)c12` (stereo not drawn), the T/C by setting is: (dose: 63.0 micrograms/kg/injection, schedule: Q01DX Z (ip), vehicle: carboxymethylcellulose (CMC)) 96 % of control; (dose: 125.0 micrograms/kg/injection, schedule: Q01DX Z (ip), vehicle: carboxymethylcellulose (CMC)) 102 % of control; (dose: 250.0 micrograms/kg/injection, schedule: Q01DX Z (ip), vehicle: carboxymethylcellulose (CMC)) 115 % of control; (dose: 500.0 micrograms/kg/injection, schedule: Q01DX Z (ip), vehicle: carboxymethylcellulose (CMC)) 93 % of control.

In the case of `Nc1nc(SCc2ccccc2)c2[nH]cnc2n1`, the T/C was 104 % of control under setting [6] and 154 % of control under setting [7].

Consider `N[C@@H](Cc1ccc(N(CCCl)CCCl)cc1)C(=O)O`, for which the T/C runs as follows: (dose: 1.25 mg/kg/injection, schedule: Q01DX Z (ip), vehicle: saline) 92 % of control; (dose: 2.5 mg/kg/injection, schedule: Q01DX Z (ip), vehicle: saline) 106 % of control; (dose: 5.0 mg/kg/injection, schedule: Q01DX Z (ip), vehicle: saline) 123 % of control; (dose: 10.0 mg/kg/injection, schedule: Q01DX Z (ip), vehicle: saline) 92 % of control.

In the case of `O=C1CCC(N2C(=O)c3ccccc3C2=O)C(=O)N1` (stereo not drawn), the T/C was 96 % of control (dose: 18.75 mg/kg/injection, schedule: Q01DX Z (ip), vehicle: carboxymethylcellulose (CMC)); 102 % of control (dose: 37.5 mg/kg/injection, schedule: Q01DX Z (ip), vehicle: carboxymethylcellulose (CMC)); 102 % of control (dose: 75.0 mg/kg/injection, schedule: Q01DX Z (ip), vehicle: carboxymethylcellulose (CMC)); 94 % of control (dose: 150.0 mg/kg/injection, schedule: Q01DX Z (ip), vehicle: carboxymethylcellulose (CMC)).

As for `CS(=O)(=O)OCC(O)C(O)COS(C)(=O)=O` (stereo not drawn), the T/C was 101 % of control (dose: 99.0 mg/kg/injection, schedule: Q01DX Z (ip), vehicle: saline); 101 % of control (dose: 188.0 mg/kg/injection, schedule: Q01DX Z (ip), vehicle: saline); 101 % of control (dose: 375.0 mg/kg/injection, schedule: Q01DX Z (ip), vehicle: saline); 117 % of control and 120 % of control (dose: 750.0 mg/kg/injection, schedule: Q01DX Z (ip), vehicle: saline); 109 % of control and 120 % of control (dose: 1500.0 mg/kg/injection, schedule: Q01DX Z (ip), vehicle: saline); 112 % of control (dose: 3000.0 mg/kg/injection, schedule: Q01DX Z (ip), vehicle: saline).
